From US20240165244A1 (Prelude Therapeutics Incorporated, priority 2022, published 2024)

Columns and labels:
SMARCA4 = target: T1, SMARCA4 (Homo sapiens, UniProt P51532); assay: SMARCA4 HiBiT degradation assay in HeLa cells; format: cell-based; conditions: 18 hours, highest concentration 10 μM
T1 construct: SMARCA4-HiBiT knock-in Hela monoclonal cell (CS3023226); host or cells: HeLa monoclonal cells with heterozygous HiBiT knock-in at the endogenous SMARCA4 locus
Method: (§1) SMARCA2 HiBiT and SMARCA4 HiBiT Degradation Assay
HiBiT peptide knock-in of SMARCA2 in LgBiT expressing HEK293T cells was performed by CRISPR-mediated tagging system as described Promega. […] SMARCA2-HiBiT knock-in Hela monoclonal cell (CS302366) and SMARCA4-HiBiT knock-in Hela monoclonal cell (CS3023226) were purchased from Promega.
(§2) SMARCA2 HiBiT and SMARCA4 HiBiT Degradation Assay in HeLa Cells
Remove appropriate volume of resuspended cells from culture flask to accommodate 2500 cells/well @ 20 μL/well. […] Spin down at 1000 rpm for 5 min using tabletop centrifuge (SPINCHRON 15, Beckman).
Dispense test compounds onto plates using digital liquid dispenser (D300E, Tecan). Incubate plates in humidified tissue culture incubator @37° C. for 18 hours. […] Raw data files and compound information reports are swept into centralized data lake and deconvoluted using automated scripts designed by TetraScience, Inc. Data analysis, curve-fitting and reporting done in Dotmatics Informatics Suite using Screening Ultra module.

SMARCA2 = target: T2, SMARCA2 (Homo sapiens, UniProt P51531); assay: SMARCA2 HiBiT degradation assay in HeLa cells; format: cell-based; conditions: 18 hours, highest concentration 10 μM
T2 construct: SMARCA2-HiBiT knock-in Hela monoclonal cell (CS302366); host or cells: HeLa monoclonal cells with heterozygous HiBiT knock-in at the endogenous SMARCA2 locus
T2 sequence (P51531 whole entry): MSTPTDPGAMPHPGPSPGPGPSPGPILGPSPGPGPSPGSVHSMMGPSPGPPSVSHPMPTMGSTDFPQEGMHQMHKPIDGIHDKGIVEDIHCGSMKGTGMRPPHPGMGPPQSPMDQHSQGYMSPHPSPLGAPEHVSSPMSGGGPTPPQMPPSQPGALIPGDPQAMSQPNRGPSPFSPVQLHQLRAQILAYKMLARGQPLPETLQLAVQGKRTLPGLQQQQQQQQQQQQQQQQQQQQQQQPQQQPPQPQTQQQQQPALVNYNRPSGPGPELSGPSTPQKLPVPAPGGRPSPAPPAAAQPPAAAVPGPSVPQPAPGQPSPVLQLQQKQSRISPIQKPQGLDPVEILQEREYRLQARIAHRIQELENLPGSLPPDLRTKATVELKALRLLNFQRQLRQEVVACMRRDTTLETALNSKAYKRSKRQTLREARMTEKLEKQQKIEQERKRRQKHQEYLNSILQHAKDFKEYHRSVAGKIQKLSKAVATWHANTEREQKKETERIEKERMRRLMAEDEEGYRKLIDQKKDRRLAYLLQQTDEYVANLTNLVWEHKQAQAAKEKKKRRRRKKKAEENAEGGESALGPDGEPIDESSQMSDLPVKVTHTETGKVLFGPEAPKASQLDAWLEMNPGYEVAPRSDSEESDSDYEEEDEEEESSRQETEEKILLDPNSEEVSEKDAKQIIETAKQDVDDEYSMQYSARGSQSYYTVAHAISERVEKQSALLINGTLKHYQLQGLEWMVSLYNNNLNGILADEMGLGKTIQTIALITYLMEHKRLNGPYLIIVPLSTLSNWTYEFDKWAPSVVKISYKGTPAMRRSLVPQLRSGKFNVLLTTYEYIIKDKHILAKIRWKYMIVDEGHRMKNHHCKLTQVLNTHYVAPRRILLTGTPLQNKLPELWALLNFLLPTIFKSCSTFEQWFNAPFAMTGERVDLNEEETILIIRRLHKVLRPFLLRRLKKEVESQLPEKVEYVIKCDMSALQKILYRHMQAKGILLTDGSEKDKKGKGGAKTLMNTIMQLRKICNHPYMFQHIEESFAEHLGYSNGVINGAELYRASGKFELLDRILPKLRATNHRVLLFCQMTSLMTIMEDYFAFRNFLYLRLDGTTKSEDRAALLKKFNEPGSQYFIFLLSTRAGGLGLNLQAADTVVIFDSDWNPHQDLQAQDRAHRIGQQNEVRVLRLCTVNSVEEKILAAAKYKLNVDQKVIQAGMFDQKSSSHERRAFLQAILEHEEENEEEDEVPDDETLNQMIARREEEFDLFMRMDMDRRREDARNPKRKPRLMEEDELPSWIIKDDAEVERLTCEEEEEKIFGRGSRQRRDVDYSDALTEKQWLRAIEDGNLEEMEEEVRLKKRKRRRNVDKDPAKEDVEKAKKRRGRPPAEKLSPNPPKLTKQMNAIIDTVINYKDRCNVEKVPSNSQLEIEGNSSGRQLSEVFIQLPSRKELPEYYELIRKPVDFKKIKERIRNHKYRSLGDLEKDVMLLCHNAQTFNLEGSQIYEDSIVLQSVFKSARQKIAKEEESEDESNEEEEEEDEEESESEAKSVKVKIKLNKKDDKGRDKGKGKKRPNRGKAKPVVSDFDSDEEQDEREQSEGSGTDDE
Method: as §1
HiBiT peptide knock-in of SMARCA2 in LgBiT expressing HEK293T cells was performed by CRISPR-mediated tagging system as described Promega. The homozygous HiBiT knock-in on c-terminus SMARCA2 was confirmed by sanger sequence. SMARCA2-HiBiT knock-in Hela monoclonal cell (CS302366) and SMARCA4-HiBiT knock-in Hela monoclonal cell (CS3023226) were purchased from Promega. The heterozygous HiBiT-knock-in was confirmed by sanger sequence in both SMARCA2-HiBiT and SMARCA4-HiBiT monoclonal cells.
as §2
Dispense 10 ul aliquot of prepared Hela-SMARCA2-HiBiT or Hela-SMARCA4-HiBiT cells (1:1 ratio of cells:Trypan Blue (#1450013, Bio-Rad)) onto cell counting slide (#145-0011, Bio-Rad) and obtain cell density and cell viability using cell counter (TC20, Bio-Rad). Remove appropriate volume of resuspended cells from culture flask to accommodate 2500 cells/well @ 20 μL/well. Transfer Hela-HiBiT cells to 50 mL conical (#430290, Corning). Spin down at 1000 rpm for 5 min using tabletop centrifuge (SPINCHRON 15, Beckman). Discard supernatant and resuspend cell pellet in modified EMEM (#30-2003, ATCC) cell culture media containing 10% FBS (F2422-500ML, Sigma), and 1× Penicillin/Streptomycin ([…]) (30-002-CI, Corning) to a cell density of 125,000 cells/mL. Dispense 20 μLof resuspended Hela-HiBit cells per well in 384-well TC treated plate (#12-565-343, Thermo Scientific) using standard cassette (#50950372, Thermo Scientific) on Multidrop Combi (#5840310, Thermo Scientific) inside laminar flow cabinet.
Compounds were dissolved in DMSO to make 10 mM stock and 3-fold series dilutions were further conducted keeping the highest concentration 10 μM. Dispense test compounds onto plates using digital liquid dispenser (D300E, Tecan). Incubate plates in humidified tissue culture incubator @37° C. for 18 hours. Add 20 μL of prepared Nano-Glo® HiBiT Lytic detection buffer (N3050, Promega) to each well of 384-well plate using small tube cassette (#24073295, Thermo Scientific) on Multidrop Combi, incubate @ RT for 30-60 min. Read plates on microplate reader (Envision 2105, PerkinElmer) using 384 well Ultra-Sensitive luminescence mode. Raw data files and compound information reports are swept into centralized data lake and deconvoluted using automated scripts designed by TetraScience, Inc. Data analysis, curve-fitting and reporting done in Dotmatics Informatics Suite using Screening Ultra module.

T1 sequence (P51532 whole entry): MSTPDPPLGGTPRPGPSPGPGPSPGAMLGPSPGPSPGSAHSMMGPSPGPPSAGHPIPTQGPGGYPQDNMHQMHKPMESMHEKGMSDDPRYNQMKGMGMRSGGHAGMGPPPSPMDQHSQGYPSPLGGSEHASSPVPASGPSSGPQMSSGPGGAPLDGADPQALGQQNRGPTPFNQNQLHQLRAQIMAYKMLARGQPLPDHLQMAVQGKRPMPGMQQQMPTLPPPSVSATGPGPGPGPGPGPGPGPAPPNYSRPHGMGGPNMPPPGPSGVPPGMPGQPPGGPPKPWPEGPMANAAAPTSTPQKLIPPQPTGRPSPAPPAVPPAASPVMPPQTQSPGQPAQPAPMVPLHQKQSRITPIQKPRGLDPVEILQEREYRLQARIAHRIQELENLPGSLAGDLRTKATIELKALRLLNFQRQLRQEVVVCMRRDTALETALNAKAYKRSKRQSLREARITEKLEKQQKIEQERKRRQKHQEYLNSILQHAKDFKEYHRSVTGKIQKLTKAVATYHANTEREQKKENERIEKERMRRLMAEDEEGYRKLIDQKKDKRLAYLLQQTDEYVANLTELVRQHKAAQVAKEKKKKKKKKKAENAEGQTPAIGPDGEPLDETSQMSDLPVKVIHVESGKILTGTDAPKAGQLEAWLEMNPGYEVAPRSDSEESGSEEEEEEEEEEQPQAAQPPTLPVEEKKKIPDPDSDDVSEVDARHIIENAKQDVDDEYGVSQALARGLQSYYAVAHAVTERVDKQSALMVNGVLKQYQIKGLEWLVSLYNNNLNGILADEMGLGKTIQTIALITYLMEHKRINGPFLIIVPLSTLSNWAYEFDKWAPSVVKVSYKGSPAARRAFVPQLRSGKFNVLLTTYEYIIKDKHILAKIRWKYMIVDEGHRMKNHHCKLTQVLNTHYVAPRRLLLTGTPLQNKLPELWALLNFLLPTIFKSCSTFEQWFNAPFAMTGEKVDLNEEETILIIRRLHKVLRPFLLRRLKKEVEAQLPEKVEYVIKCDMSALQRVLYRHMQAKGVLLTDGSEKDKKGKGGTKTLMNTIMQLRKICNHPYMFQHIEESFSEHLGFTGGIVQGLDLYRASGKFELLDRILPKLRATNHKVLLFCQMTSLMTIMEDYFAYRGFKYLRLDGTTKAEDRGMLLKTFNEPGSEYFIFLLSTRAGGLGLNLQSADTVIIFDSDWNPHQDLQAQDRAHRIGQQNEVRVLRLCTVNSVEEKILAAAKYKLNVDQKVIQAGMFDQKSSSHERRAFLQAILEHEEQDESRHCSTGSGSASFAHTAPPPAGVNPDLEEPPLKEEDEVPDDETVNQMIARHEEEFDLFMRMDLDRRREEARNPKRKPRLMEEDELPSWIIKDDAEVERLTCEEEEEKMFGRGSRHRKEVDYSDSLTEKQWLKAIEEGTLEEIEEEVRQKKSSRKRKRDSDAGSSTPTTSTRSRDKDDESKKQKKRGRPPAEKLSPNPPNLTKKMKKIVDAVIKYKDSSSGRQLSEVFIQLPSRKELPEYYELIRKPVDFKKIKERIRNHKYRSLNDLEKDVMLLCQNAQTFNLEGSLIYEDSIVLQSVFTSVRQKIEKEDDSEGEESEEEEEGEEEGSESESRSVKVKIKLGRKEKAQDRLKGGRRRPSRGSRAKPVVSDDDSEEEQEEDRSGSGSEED

Compound	DC50 (SMARCA4) [nM]	Dmax (SMARCA4) [%]	DC50 (SMARCA2) [nM]	Dmax (SMARCA2) [%]
C[C@@H]1CN(CC2CCN(c3ccc4c(c3)C(=O)N(C3CCC(=O)NC3=O)C4)CC2)C[C@H](C)N1C(=O)[C@@H]1C[C@@H]2CNc3nnc(-c4cccc(F)c4O)cc3N2C1 (stereo partly drawn) [Example 34, 3-(6-(4-(((3R,5S)-4-((6aR,8R)-2-(3-fluoro-2-hydroxyphenyl)-5,6,6a,7,8,9-hexahydropyrrolo[1′,2′:4,5]pyrazino[2,3-c]pyridazine-8-carbonyl)-3,5-dimethylpiperazin-1-yl)methyl)piperidin-1-yl)-1-oxoisoindolin-2-yl)piperidine-2,6-dione]	> 1000	< 50	< 100	50 to 75
Cc1nc(CN2CCN(c3ccc4c(c3)C(=O)N(C3CCC(=O)NC3=O)C4)CC2)cnc1O[C@H]1CN2c3cc(-c4cccc(F)c4O)nnc3NC[C@]2(C(F)F)C1 (stereo partly drawn) [Example 40, 3-(6-(4-((5-(((6aS,8R)-6a-(difluoromethyl)-2-(3-fluoro-2-hydroxyphenyl)-5,6,6a,7,8,9-hexahydropyrrolo[1′,2′:4,5]pyrazino[2,3-c]pyridazin-8-yl)oxy)-6-methylpyrazin-2-yl)methyl)piperazin-1-yl)-1-oxoisoindolin-2-yl)piperidine-2,6-dione]	100 to 1000	< 50	< 100	> 75
Cc1cc(O[C@@H]2C[C@@H]3CNc4nnc(-c5cc(F)cc(F)c5O)cc4N3C2)cc(C)c1CN1CCN(c2ccc3c(c2)C(=O)N(C2CCC(=O)NC2=O)C3)CC1 (stereo partly drawn) [Example 17, 3-(6-(4-(4-(((6aR,8R)-2-(3,5-difluoro-2-hydroxyphenyl)-5,6,6a,7,8,9-hexahydropyrrolo[1′,2′:4,5]pyrazino[2,3-c]pyridazin-8-yl)oxy)-2,6-dimethylbenzyl)piperazin-1-yl)-1-oxoisoindolin-2-yl)piperidine-2,6-dione]	> 1000	< 50	< 100	> 75
CN(c1ccc(CN2CCN(c3ccc4c(c3)C(=O)N(C3CCC(=O)NC3=O)C4)CC2)cn1)[C@@H]1C[C@@H]2CNc3nnc(-c4cccc(F)c4O)cc3N2C1 (stereo partly drawn) [Example 35, 3-(6-(4-((6-(((6aR,8R)-2-(3-fluoro-2-hydroxyphenyl)-5,6,6a,7,8,9-hexahydro-pyrrolo[1′,2′:4,5]pyrazino[2,3-c]pyridazin-8-yl)(methyl)amino)pyridin-3-yl)methyl)piperazin-1-yl)-1-oxoisoindolin-2-yl)piperidine-2,6-dione]	> 1000	< 50	> 1000	50 to 75
O=C1CCC(N2Cc3ccc(N4CCN(Cc5cnc(O[C@H]6CN7c8cc(-c9cccc(F)c9O)nnc8NC[C@@]7(C(F)F)C6)c(F)c5)CC4)cc3C2=O)C(=O)N1 (stereo partly drawn) [Example 84, 3-(6-(4-((6-(((6aR,8R)-6a-(difluoromethyl)-2-(3-fluoro-2-hydroxyphenyl)-5,6,6a,7,8,9-hexahydropyrrolo[1′,2′:4,5]pyrazino[2,3-c]pyridazin-8-yl)oxy)-5-fluoropyridin-3-yl)methyl)piperazin-1-yl)-1-oxoisoindolin-2-yl)piperidine-2,6-dione]	100 to 1000	< 50	< 100	> 75
CC[C@@]12CNc3nnc(-c4cccc(F)c4O)cc3N1C[C@H](Oc1cnc(CN3CCC(c4ccc5c(c4)C(=O)N([C@H]4CCC(=O)NC4=O)C5)CC3)c(F)c1)C2 [Example 101, (S)-3-(6-(1-((5-(((6aR,8R)-6a-ethyl-2-(3-fluoro-2-hydroxyphenyl)-5,6,6a,7,8,9-hexahydropyrrolo[1′,2′:4,5]pyrazino[2,3-c]pyridazin-8-yl)oxy)-3-fluoropyridin-2-yl)methyl)piperidin-4-yl)-1-oxoisoindolin-2-yl)piperidine-2,6-dione]	100 to 1000	< 50	< 100	> 75
CC[C@@]12CNc3nnc(-c4cccc(F)c4O)cc3N1C[C@H](Oc1cnc(CN3CCN(c4ccc5c(c4)CN([C@H]4CCC(=O)NC4=O)C5)CC3)c(F)c1)C2 [Example 72, (S)-3-(6-(4-((5-(((6aR,8R)-6a-Ethyl-2-(3-fluoro-2-hydroxyphenyl)-5,6,6a,7,8,9-exahydropyrrolo[1′,2′:4,5]pyrazino[2,3-c]pyridazin-8-yl)oxy)-3-fluoropyridin-2-yl)methyl)piperazin-1-yl)-1-oxoisoindolin-2-yl)piperidine-2,6-dione]	100 to 1000	< 50	< 100	> 75
O=C1CCC(N2Cc3ccc(N4CCN(Cc5ccc(O[C@@H]6C[C@@H]7CNc8nnc(-c9cc(F)cc(F)c9O)cc8N7C6)cc5F)CC4)cc3C2=O)C(=O)N1 (stereo partly drawn) [Example 13, 3-(6-(4-(4-(((6aR,8R)-2-(3,5-difluoro-2-hydroxyphenyl)-5,6,6a,7,8,9-hexahydropyrrolo[1′,2′:4,5]pyrazino[2,3-c]pyridazin-8-yl)oxy)-2-fluorobenzyl)piperazin-1-yl)-1-oxoisoindolin-2-yl)piperidine-2,6-dione]	< 100	> 75	< 100	> 75

Other lines, results leading:

DC50 (SMARCA4) [nM]	Dmax (SMARCA4) [%]	DC50 (SMARCA2) [nM]	Dmax (SMARCA2) [%]	Compound
< 100	50 to 75	< 100	> 75	O=C1CCC(N2Cc3ccc(N4CCN(Cc5ccc(S[C@@H]6C[C@@H]7CNc8nnc(-c9cc(F)cc(F)c9O)cc8N7C6)cc5)CC4)cc3C2=O)C(=O)N1 (stereo partly drawn) [Example 32]
< 100	50 to 75	< 100	> 75	Cc1cc(O[C@@H]2C[C@@H]3CNc4nnc(-c5cc(F)cc(Cl)c5O)cc4N3C2)ccc1CN1CCN(c2ccc3c(c2)C(=O)N(C2CCC(=O)NC2=O)C3)CC1 (stereo partly drawn) [Example 19, 3-(6-(4-(4-(((6aR,8R)-2-(3-chloro-5-fluoro-2-hydroxyphenyl)-5,6,6a,7,8,9-hexahydropyrrolo[1′,2′:4,5]pyrazino[2,3-c]pyridazin-8-yl)oxy)-2-methylbenzyl)piperazin-1-yl)-1-oxoisoindolin-2-yl)piperidine-2,6-dione]
< 100	50 to 75	< 100	> 75	Cc1cc(O[C@@H]2C[C@@H]3CNc4nnc(-c5cc(F)cc(F)c5O)cc4N3C2)c(C)cc1CN1CCN(c2ccc3c(c2)C(=O)N(C2CCC(=O)NC2=O)C3)CC1 (stereo partly drawn) [Example 9, 3-(6-(4-(4-(((6aR,8R)-2-(3,5-difluoro-2-hydroxyphenyl)-5,6,6a,7,8,9-hexahydropyrrolo[1′,2′:4,5]pyrazino[2,3-c]pyridazin-8-yl)oxy)-2,5-dimethylbenzyl)piperazin-1-yl)-1-oxoisoindolin-2-yl)piperidine-2,6-dione]
< 100	> 75	< 100	> 75	O=C1CCC(N2Cc3ccc(N4CCN(Cc5ccc(O[C@@H]6C[C@@H]7CNc8nnc(-c9cc(F)cc(F)c9O)cc8N7C6)nc5)CC4)cc3C2=O)C(=O)N1 (stereo partly drawn) [Example 33, 3-(6-(4-((6-(((6aR,8R)-2-(3,5-difluoro-2-hydroxyphenyl)-5,6,6a,7,8,9-hexahydropyrrolo[1′,2′:4,5]pyrazino[2,3-c]pyridazin-8-yl)oxy)pyridin-3-yl)methyl)piperazin-1-yl)-1-oxoisoindolin-2-yl)piperidine-2,6-dione]
